Source: patent US7605272B2, “IGF-1R inhibitor” (Kyowa Hakko Kirin Co., Ltd., priority 2005, dated 2009)
Counter-ions that a name gives are not always drawn.

Assays:
NCI-H929 = assay: Cytostatic activity on human multiple myeloma cell line NCI-H929 (WST-1); assay type: cell-based; conditions: 72 hours; for inhibition at 10 µM / inhibition at 1 µM: Homo sapiens, NCI-H929, 72 h; for inhibition at 10 µM: read-out: cytostatic rate (%) H929 (10 μmol/L); for inhibition at 1 µM: 1 μmol/L, read-out: cytostatic rate (%) H929 (1 μmol/L)
Method in brief: (§1)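 Cytostatic rate is 100 minus % growth relative to DMSO-only wells (100%) and blank wells (0%), read by WST-1 absorbance at 450/690 nm after 2 h. Compound at 1 or 10 μmol/L final was applied for 72 h at 37 °C to cells seeded 24 h earlier.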

KMS-11 = assay: Cytostatic activity on human multiple myeloma cell line KMS-11 (WST-1); assay type: cell-based; conditions: 72 hours; for inhibition at 10 µM / inhibition at 1 µM: Homo sapiens, KMS-11, 72 h; for inhibition at 10 µM: read-out: cytostatic rate (%) KMS-11 (10 μmol/L); for inhibition at 1 µM: 1 μmol/L, read-out: cytostatic rate (%) KMS-11 (1 μmol/L)
Method in brief: as §1

IGF-1R = molecular target: T1, IGF-1R (Homo sapiens, UniProt P08069); assay: IGF-1R inhibitory activity (kinase reaction, time-resolved fluoroimmunoassay); assay type: biochemical; conditions: test compound 10 μmol/L
T1 construct: purchased Upstate Co. 14-465
Method in brief: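 Compounds were tested at a single 10 μmol/L concentration. Each was incubated with recombinant IGF-1R (200 μg/L), 10 mmol/L ATP, MgCl2/MnCl2 and Na3VO4 (pH 7.5) on immobilized poly(Glu-Tyr) peptide for 30 min at 24° C. Eu-anti-phosphotyrosine time-resolved fluorescence (340/615 nm) gave relative activity against no-compound and no-enzyme wells, reported as % inhibition.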

[1] = IGF-1R active recombinant enzyme

T1 sequence (P08069 959-1367 limits assumed): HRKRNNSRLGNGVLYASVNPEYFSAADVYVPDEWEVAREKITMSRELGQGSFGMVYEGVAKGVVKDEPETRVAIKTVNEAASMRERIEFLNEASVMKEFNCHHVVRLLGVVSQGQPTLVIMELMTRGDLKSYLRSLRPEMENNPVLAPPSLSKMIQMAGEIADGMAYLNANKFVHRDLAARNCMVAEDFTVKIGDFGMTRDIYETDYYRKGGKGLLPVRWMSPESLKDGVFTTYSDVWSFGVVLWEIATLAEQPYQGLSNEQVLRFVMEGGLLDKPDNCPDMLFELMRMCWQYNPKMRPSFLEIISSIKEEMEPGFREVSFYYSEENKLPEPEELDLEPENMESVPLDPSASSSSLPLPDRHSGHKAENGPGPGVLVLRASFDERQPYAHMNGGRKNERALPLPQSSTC

inhibition at 10 µM (IGF-1R; [1]) | SMILES | inhibition at 10 µM (NCI-H929; 10 μmol/L) | inhibition at 10 µM (KMS-11; 10 μmol/L) | inhibition at 1 µM (NCI-H929) | inhibition at 1 µM (KMS-11) | further results
98.9% | COc1cscc1C(=O)Nc1ccccc1/C=C/c1n[nH]c2ccccc12 [Compound 53, (E)-N-{2-[2-(1H-indazol-3-yl)vinyl]phenyl}-4-methoxythiophene-3-carboxamide] | 114% | 126% | – | – | –
92.1% | C(=C\c1n[nH]c2ccccc12)/c1ccccc1OCCc1ccccc1 [Compound 140, (E)-3-{2-[2-(2-phenylethyloxy)phenyl]vinyl}-1H-indazole] | 104% | 58.9% | – | – | –
92.4% | O=C(Nc1ccccc1/C=C/c1n[nH]c2ccccc12)C1CC1 [Compound 33, (E)-N-{2-[2-(1H-indazol-3-yl)vinyl]phenyl}cyclopropanecarboxamide] | 108% | 115% | – | – | –
– | N#Cc1ccc(C(=O)Nc2ccccc2/C=C/c2n[nH]c3ccccc23)cc1 [Compound 83, (E)-4-cyano-N-{2-[2-(1H-indazol-3-yl)vinyl]phenyl}benzamide] | 114% | 107% | – | – | inhibition at 10 µM (IGF-1R): 96.3%
98.9% | O=C(Nc1ccccc1/C=C/c1n[nH]c2ccccc12)c1ccc[nH]1 [Compound 42, (E)-N-{2-[2-(1H-indazol-3-yl)vinyl]phenyl}-1H-pyrrole-2-carboxamide] | 126% | 109% | – | – | –
99.9% | O=C1c2ccccc2C(=O)N1c1ccccc1/C=C/c1n[nH]c2ccccc12 [Compound 159, (E)-2-{2-[2-(1H-indazol-3-yl)vinyl]phenyl}isoindole-1,3-dione] | 104% | 75.5% | – | – | –
96.1% | O=C(Nc1ccccc1/C=C/c1n[nH]c2ccccc12)c1ccccn1 [Compound 12, (E)-N-{2-[2-(1H-indazol-3-yl)vinyl]phenyl}pyridine-2-carboxamide] | 118% | 120% | – | – | –
101% | COCCN(C)Cc1ccc(/C=C/c2n[nH]c3ccccc23)c(NC(=O)c2sccc2C)c1 [Compound 252, (E)-N-{2-[2-(1H-indazol-3-yl)vinyl]-5-[N-(2-methoxyethyl)methylaminomethyl]phenyl}-3-methylthiophene-2-carboxamide] | – | – | 120% | 113% | –
101% | Cc1ccsc1C(=O)Nc1cc(C(=O)N(C)C2CCNCC2)ccc1/C=C/c1n[nH]c2ccccc12 [Compound 297, (E)-N-{2-[2-(1H-indazol-3-yl)vinyl]-5-[N-methyl-N-(piperidine-4-yl)carbamoyl]phenyl}-3-methylthiophene-2-carboxamide] | – | – | 116% | 94.5% | –
99.1% | O=C(Nc1ccccc1/C=C/c1n[nH]c2ccccc12)c1ccncc1 [Compound 10, (E)-N-{2-[2-(1H-indazol-3-yl)vinyl]phenyl}isonicotinamide] | 113% | 102% | – | – | –
100% | CCN(CC)CCN(CCO)C(=O)c1ccc(/C=C/c2n[nH]c3ccccc23)c(NC(=O)c2sccc2C)c1 [Compound 255, (E)-N-(5-{N-[2-(diethylamino)ethyl]-N-(2-hydroxyethyl)carbamoyl}-2-[2-(1H-indazol-3-yl)vinyl]phenyl)-3-methylthiophene-2-carboxamide] | – | – | 121% | 97.6% | –
100% | CCN(CC)CCOc1ccc(NC(=O)c2sccc2C)c(/C=C/c2n[nH]c3ccccc23)c1 [Compound 237, (E)-N-{2-[2-(1H-indazol-3-yl)vinyl]-4-(2-diethylaminoethoxy)phenyl}-3-methylthiophene-2-carboxamide] | – | – | 120% | 144% | –
99.5% | Nc1cccc2c1C(=O)N(c1ccc(F)cc1/C=C/c1n[nH]c3ccccc13)C2=O [Compound 254, (E)-4-amino-2-{4-fluoro-2-[2-(1H-indazol-3-yl)vinyl]phenyl}isoindole-1,3-dione] | – | – | 116% | 81.2% | –
103% | Cc1ccsc1C(=O)Nc1cc(C(=O)NC2CCNCC2)ccc1/C=C/c1n[nH]c2ccccc12 [Compound 240, (E)-N-{2-[2-(1H-indazol-3-yl)vinyl]-5-(piperidin-4-ylcarbamoyl)phenyl}-3-methylthiophene-2-carboxamide hydrochloride] | – | – | 105% | 67% | –
97.3% | COc1ccccc1C(=O)Nc1ccccc1/C=C/c1n[nH]c2ccccc12 [Compound 20, (E)-N-{2-[2-(1H-indazol-3-yl)vinyl]phenyl}-2-methoxybenzamide] | 130% | 107% | – | – | –
97.2% | Cc1ccsc1C(=O)Nc1cc(C(=O)N2CCN(CCO)CC2)ccc1/C=C/c1n[nH]c2ccccc12 [Compound 281, (E)-N-{5-[4-(2-hydroxyethyl)piperazin-1-ylcarbonyl]-2-[2-(1H-indazol-3-yl)vinyl]phenyl}-3-methylthiophene-2-carboxamide] | – | – | 128% | 115% | –
– | Cc1ccsc1C(=O)Nc1cc(N(C)C)ccc1/C=C/c1n[nH]c2ccccc12 [Compound 105, (E)-N-{5-dimethylamino-2-[2-(1H-indazol-3-yl)vinyl]phenyl}-3-methylthiophene-2-carboxamide] | 120% | 120% | – | – | inhibition at 10 µM (IGF-1R): 94.8%
100% | COCCN(CCN1CCOCC1)C(=O)c1ccc(/C=C/c2n[nH]c3ccccc23)c(NC(=O)c2sccc2C)c1 [Compound 249, (E)-N-(2-[2-(1H-indazol-3-yl)vinyl]-5-{N-(2-methoxyethyl)-N-[2-(morpholin-4-yl)ethyl]carbamoyl}phenyl)-3-methylthiophene-2-carboxamide] | – | – | 113% | 113% | –
– | COC1CCN(C(=O)c2ccc(/C=C/c3n[nH]c4ccccc34)c(NC(=O)c3sccc3C)c2)CC1 [Compound 120, (E)-N-{2-[2-(1H-indazol-3-yl)vinyl]-5-(4-methoxypiperidin-1-ylcarbonyl)phenyl}-3-methylthiophene-2-carboxamide] | 116% | 114% | – | – | inhibition at 10 µM (IGF-1R): 97.5%
– | CCC(O)(CC)C(=O)Nc1ccccc1/C=C/c1n[nH]c2ccccc12 [Compound 45, (E)-2-ethyl-2-hydroxy-N-{2-[2-(1H-indazol-3-yl)vinyl]phenyl}butylamide] | – | – | – | – | cytostatic rate (%) H929 (10 μmol/L) (NCI-H929; 10 μmol/L): 115.0%; cytostatic rate (%) KMS-11 (10 μmol/L) (KMS-11; 10 μmol/L): 98.3%; inhibitory activity (%) at 10 μmol/L (IGF-1R; [1]): 97.4%
86.3% | Cc1cc(C(=O)Nc2ccccc2/C=C/c2n[nH]c3ccccc23)c(C(F)(F)F)o1 [Compound 59, (E)-N-{2-[2-(1H-indazol-3-yl)vinyl]phenyl}-5-methyl-2-trifluoromethylfuran-3-carboxamide] | 110% | 106% | – | – | –
97.4% | CC(=O)Nc1ccc(C(=O)Nc2ccccc2/C=C/c2n[nH]c3ccccc23)s1 [Compound 68, (E)-5-acetylamino-N-{2-[2-(1H-indazol-3-yl)vinyl]phenyl}thiophene-2-carboxamide] | 114% | 112% | – | – | –
